In brackets after ≈: the same amount, converted by molar mass.
Columns and labels:
[1] = SUPPLEMENTARY: PAMPA permeability assay; type: physicochemical; conditions: read-out: Permeability
[2] = target: T1, Carnitine O-palmitoyltransferase 1, muscle isoform (Homo sapiens, UniProt Q92523); experiment: SUPPLEMENTARY: Inhibition of Carnitine palmitoyltransferase 1, muscle isoform; design: species or system Muscle tissue
T1 sequence (Q92523 whole entry): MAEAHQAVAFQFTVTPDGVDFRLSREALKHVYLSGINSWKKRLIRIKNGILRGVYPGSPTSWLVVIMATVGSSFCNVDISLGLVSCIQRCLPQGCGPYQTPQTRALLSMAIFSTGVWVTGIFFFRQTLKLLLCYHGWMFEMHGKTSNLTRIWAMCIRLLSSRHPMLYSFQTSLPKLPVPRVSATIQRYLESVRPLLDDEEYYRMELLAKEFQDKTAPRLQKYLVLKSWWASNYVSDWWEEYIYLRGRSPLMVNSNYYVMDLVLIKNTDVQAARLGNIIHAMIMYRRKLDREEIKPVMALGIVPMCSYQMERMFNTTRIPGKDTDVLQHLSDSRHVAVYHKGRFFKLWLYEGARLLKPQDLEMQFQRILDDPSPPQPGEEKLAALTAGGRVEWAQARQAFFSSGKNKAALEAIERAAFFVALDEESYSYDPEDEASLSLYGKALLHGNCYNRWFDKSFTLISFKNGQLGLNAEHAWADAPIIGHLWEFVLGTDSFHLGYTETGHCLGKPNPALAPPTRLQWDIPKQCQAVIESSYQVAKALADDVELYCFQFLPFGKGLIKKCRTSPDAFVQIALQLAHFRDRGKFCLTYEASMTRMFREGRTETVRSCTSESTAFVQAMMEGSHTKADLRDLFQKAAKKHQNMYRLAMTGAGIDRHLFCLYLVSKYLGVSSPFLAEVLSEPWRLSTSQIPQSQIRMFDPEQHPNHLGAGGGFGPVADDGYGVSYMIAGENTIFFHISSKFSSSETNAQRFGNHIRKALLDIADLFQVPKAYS

[3] = SUPPLEMENTARY: Lipophilicity (log D) Determination by high-throughput shake-flask; type: physicochemical; conditions: octanol/water
[4] = SUPPLEMENTARY: Lyophilisation Solubility Assay (LYSA); type: physicochemical; conditions: read-out: Kinetic_solubility
[5] = target: T2, Carnitine O-palmitoyltransferase 1, liver isoform (Homo sapiens, UniProt P50416); experiment: (§1) SUPPLEMENTARY: Inhibition of Carnitine palmitoyltransferase 1, liver isoform
T2 sequence (P50416 whole entry): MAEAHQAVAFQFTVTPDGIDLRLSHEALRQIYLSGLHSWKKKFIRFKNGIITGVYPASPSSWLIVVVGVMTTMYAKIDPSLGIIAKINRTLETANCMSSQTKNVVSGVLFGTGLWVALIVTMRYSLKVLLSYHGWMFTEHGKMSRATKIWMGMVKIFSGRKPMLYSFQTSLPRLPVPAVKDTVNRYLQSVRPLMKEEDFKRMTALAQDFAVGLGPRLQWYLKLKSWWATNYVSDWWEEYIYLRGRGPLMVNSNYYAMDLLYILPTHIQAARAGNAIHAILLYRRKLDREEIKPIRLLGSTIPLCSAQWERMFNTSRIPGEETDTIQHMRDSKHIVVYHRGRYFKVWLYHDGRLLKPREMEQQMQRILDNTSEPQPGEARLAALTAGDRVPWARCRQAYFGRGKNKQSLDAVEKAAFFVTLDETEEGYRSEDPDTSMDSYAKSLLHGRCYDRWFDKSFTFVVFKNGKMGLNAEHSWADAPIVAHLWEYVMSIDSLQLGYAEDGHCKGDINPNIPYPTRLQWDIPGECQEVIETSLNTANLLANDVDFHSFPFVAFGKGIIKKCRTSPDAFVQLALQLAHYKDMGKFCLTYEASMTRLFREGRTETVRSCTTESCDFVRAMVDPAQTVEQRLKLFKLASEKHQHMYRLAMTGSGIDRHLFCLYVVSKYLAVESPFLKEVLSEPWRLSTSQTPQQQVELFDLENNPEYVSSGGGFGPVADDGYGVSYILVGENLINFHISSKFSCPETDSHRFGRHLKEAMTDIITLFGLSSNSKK

[6] = target: T3, Carnitine O-palmitoyltransferase 1, liver isoform (Rattus norvegicus, UniProt P32198); experiment: as §1
T3 sequence (P32198 whole entry): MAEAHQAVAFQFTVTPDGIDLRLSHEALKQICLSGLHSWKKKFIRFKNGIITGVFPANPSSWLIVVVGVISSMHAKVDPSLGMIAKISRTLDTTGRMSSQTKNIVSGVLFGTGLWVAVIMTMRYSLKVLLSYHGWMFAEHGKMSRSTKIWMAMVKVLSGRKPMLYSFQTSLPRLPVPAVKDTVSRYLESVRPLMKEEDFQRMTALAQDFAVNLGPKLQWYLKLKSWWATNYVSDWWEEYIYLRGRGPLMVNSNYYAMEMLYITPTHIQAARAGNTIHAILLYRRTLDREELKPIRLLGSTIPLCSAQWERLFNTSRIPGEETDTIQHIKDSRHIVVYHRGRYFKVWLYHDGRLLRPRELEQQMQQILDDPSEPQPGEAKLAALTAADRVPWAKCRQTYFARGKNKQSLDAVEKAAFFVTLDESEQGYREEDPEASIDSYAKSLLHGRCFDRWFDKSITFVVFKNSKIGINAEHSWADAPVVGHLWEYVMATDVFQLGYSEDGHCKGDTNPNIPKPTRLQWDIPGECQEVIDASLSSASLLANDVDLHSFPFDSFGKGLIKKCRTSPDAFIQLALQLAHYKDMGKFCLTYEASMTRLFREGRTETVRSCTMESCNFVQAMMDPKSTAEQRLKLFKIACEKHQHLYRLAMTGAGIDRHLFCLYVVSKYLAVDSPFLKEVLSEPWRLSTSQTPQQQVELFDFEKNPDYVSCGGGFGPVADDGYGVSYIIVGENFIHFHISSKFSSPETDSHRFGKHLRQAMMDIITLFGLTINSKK

[7] = target: T4, Carnitine O-palmitoyltransferase 2, mitochondrial (Homo sapiens, UniProt P23786); experiment: (§2) SUPPLEMENTARY: Inhibition of Carnitine palmitoyltransferase 2
T4 sequence (P23786 whole entry): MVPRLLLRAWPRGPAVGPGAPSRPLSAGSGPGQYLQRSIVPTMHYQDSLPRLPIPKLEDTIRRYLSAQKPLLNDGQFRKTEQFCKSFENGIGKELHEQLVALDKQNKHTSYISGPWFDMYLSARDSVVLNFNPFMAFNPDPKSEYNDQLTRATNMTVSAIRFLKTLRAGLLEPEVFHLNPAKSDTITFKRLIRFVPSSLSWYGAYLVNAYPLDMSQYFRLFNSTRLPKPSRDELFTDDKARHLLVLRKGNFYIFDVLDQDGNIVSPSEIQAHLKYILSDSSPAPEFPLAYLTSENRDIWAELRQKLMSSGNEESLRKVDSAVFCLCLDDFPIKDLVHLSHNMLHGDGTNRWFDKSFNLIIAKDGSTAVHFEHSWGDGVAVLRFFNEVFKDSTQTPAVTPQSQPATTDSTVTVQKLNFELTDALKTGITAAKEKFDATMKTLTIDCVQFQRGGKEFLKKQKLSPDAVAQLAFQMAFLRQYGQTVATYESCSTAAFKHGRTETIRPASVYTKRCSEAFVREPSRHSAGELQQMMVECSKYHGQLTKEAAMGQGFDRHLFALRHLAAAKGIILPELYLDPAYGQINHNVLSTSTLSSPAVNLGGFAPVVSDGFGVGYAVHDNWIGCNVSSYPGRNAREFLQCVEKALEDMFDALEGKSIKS

[8] = target: T5, Carnitine O-palmitoyltransferase 2, mitochondrial (Rattus norvegicus, UniProt P18886); experiment: as §2
T5 sequence (P18886 whole entry): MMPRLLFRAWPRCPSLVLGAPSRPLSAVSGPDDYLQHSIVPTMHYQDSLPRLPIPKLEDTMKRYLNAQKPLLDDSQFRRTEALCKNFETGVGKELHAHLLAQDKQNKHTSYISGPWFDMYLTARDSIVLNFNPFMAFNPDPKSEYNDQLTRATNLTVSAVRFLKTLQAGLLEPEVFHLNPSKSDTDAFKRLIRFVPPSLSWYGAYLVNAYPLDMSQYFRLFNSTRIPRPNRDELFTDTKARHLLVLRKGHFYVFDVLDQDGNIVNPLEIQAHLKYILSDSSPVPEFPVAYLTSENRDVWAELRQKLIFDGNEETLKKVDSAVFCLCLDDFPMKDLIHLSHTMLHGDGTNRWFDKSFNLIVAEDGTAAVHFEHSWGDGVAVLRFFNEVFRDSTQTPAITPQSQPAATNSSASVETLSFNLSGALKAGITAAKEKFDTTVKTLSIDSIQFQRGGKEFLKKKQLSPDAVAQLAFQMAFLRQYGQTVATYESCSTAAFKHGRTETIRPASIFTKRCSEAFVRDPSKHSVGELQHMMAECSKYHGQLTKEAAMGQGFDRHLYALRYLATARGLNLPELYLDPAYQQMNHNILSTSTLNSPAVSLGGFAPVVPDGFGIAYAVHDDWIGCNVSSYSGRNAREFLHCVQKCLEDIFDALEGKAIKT

Row | SMILES | Papp [1] [×10⁻⁶ cm/s] | IC50 [2] [nM] | logD [3] | solubility kinetic [4] [µg/mL] | IC50 [5] [nM] | IC50 [6] [nM] | IC50 [7] [nM] | IC50 [8] [nM]
1 | COc1ccc(Cl)cc1S(=O)(=O)c1cn(CCCO)c2ccc(C(=O)Nc3ccccc3)cc12 | 0.06 | > 100000 | 3.62 | < 1 | 45 | 10.1 | > 100000 | > 100000
2 | COc1ccc(Cl)cc1S(=O)(=O)N1CCc2ccc(C(=O)Nc3ccn(CC(=O)O)n3)cc21 | 0.23 | 8100 | 1.15 | > 526 | 84.7 | 99.9 | > 100000 | > 100000
3 | COc1ccc(Cl)cc1S(=O)(=O)N1CCOc2ccc(C(=O)Nc3ccn(CC(=O)O)n3)cc21 | 0.09 | 9890 | 1.27 | > 675 | 213 | 171 | > 100000 | > 100000
4 | Cc1cc(C)cc(S(=O)(=O)c2nn(CCC(=O)O)c3ccc(C(=O)Nc4ccccc4)cc23)c1 | 0.91 | > 100000 | 1.94 | 8 (≈ 16.8 µM) | 27 | 22.2 | > 100000 | > 100000
5 | Cc1cc(C)cc(S(=O)(=O)c2n[nH]c3ccc(C(=O)Nc4ccc(C(=O)O)cc4)cc23)c1 | 0.03 | 1250 | 1.89 | 40 (≈ 89 µM) | 51.2 | 26.4 | 1360 | 4340
6 | Cc1cc(C)cc(S(=O)(=O)c2nn(C)c3ccc(C(=O)Nc4ccc(C(=O)O)cc4)cc23)c1 | 0.76 | 2570 | 2.21 | 14 (≈ 30.2 µM) | 74.9 | 27.2 | 2460 | 10000
7 | COc1ccc(Cl)cc1S(=O)(=O)N1CC(C(=O)O)Cc2ccc(C(=O)Nc3ccccc3)cc21 (stereo not given) | 1.83 | 5900 | 0.31 | 203 (≈ 405 µM) | 20.8 | 14 | > 100000 | > 100000
8 | Cc1cc(-c2n[nH]c([C@H]3CCCCN3C(=O)COc3ccccc3)n2)n(C)n1 | 5.2 | > 100000 | 2.65 | 129 (≈ 339 µM) | 511 | 555 | > 100000 | > 100000
9 | NC(=O)c1ccc(-c2csc([C@H]3CCCCN3C(=O)COc3ccccc3)n2)cc1 | 5.48 | > 100000 | 2.26 | 43 (≈ 102 µM) | 239 | 484 | 18900 | 75200
10 | Cc1sc([C@H]2CCCCN2C(=O)COc2ccccc2)nc1-c1cccc(C(=O)O)c1 | 6.19 | 30300 | 0.73 | 402 (≈ 921 µM) | 92.3 | 118 | 53000 | > 100000

From ChEMBL document CHEMBL3431459, “Roche carnitine palmitoyltransferase modulator screening data (supplementary data associated with the publication CHEMBL2216752)”
